# According to PubChem BioAssay (NCI):
#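 96-well plates; 48 h exposure; 5 concentrations. Endpoints by linear interpolation between flanking doses. Not reached: highest tested concentration assigned. At the GI50, growth is halved. Definition used: TGI = concentration required for complete inhibition of growth.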
# Tests used:
# Test in all cases: NCI anticancer screen, dose series, 48 h
# MDA-MB-231 breast = test system: MDA-MB-231 breast
# SK-MEL-28 melanoma = test system: SK-MEL-28 melanoma
# SNB-75 CNS = test system: SNB-75 CNS
# HS 578T breast = test system: HS 578T breast
# SW-620 colon = test system: SW-620 colon
# HL-60(TB) leukemia = test system: HL-60(TB) leukemia
# SF-539 CNS = test system: SF-539 CNS
# RPMI-8226 leukemia = test system: RPMI-8226 leukemia
# SF-268 CNS = test system: SF-268 CNS
# A549 NSCLC = test system: A549 NSCLC
# UACC-62 melanoma = test system: UACC-62 melanoma
# KM12 colon = test system: KM12 colon
# MALME-3M melanoma = test system: MALME-3M melanoma
# EKVX NSCLC = test system: EKVX NSCLC
# NCI-H460 lung = test system: NCI-H460 lung
# UACC-257 melanoma = test system: UACC-257 melanoma
# HCT-15 colon = test system: HCT-15 colon
# K-562 leukemia = test system: K-562 leukemia
# HCC-2998 colon = test system: HCC-2998 colon
# MOLT-4 leukemia = test system: MOLT-4 leukemia
# SK-OV-3 ovarian = test system: SK-OV-3 ovarian
# HCT-116 colon = test system: HCT-116 colon
# ACHN renal = test system: ACHN renal
# CCRF-CEM leukemia = test system: CCRF-CEM leukemia
# M14 melanoma = test system: M14 melanoma
# MCF7 breast = test system: MCF7 breast
# SK-MEL-2 melanoma = test system: SK-MEL-2 melanoma
# T-47D breast = test system: T-47D breast
# SR leukemia = test system: SR leukemia
# SN12C renal = test system: SN12C renal
# IGROV1 ovarian = test system: IGROV1 ovarian
# SNB-19 CNS = test system: SNB-19 CNS
# HOP-92 NSCLC = test system: HOP-92 NSCLC
# NCI-H226 lung = test system: NCI-H226 lung
# OVCAR-5 ovarian = test system: OVCAR-5 ovarian
# PC-3 prostate = test system: PC-3 prostate
# SF-295 CNS = test system: SF-295 CNS
# TK-10 renal = test system: TK-10 renal
# UO-31 renal = test system: UO-31 renal
# OVCAR-3 ovarian = test system: OVCAR-3 ovarian
# OVCAR-8 ovarian = test system: OVCAR-8 ovarian
# CAKI-1 renal = test system: CAKI-1 renal
# U251 CNS = test system: U251 CNS
# BT-549 breast = test system: BT-549 breast
# LOX IMVI melanoma = test system: LOX IMVI melanoma
# DU-145 prostate = test system: DU-145 prostate
# COLO 205 colon = test system: COLO 205 colon
# NCI-H522 lung = test system: NCI-H522 lung
# NCI-H23 lung = test system: NCI-H23 lung
# HT29 colon = test system: HT29 colon
# RXF 393 renal = test system: RXF 393 renal
# SK-MEL-5 melanoma = test system: SK-MEL-5 melanoma
# MDA-MB-468 breast = test system: MDA-MB-468 breast
# MDA-MB-435 = test system: MDA-MB-435
# A498 renal = test system: A498 renal
# 786-0 renal = test system: 786-0 renal
# OVCAR-4 ovarian = test system: OVCAR-4 ovarian
# HOP-62 NSCLC = test system: HOP-62 NSCLC
structure (smiles),measurement,setting,value
CSc1ccc(NC(=O)c2ccc3nnn(/C(C#N)=C/c4ccccn4)c3c2)cc1,GI50,MDA-MB-231 breast,1.75 µM
same,TGI,MDA-MB-231 breast,3.21 µM
same,GI50,SK-MEL-28 melanoma,1.48 µM
same,TGI,SK-MEL-28 melanoma,2.82 µM
same,GI50,SNB-75 CNS,1.82 µM
same,TGI,SNB-75 CNS,4.38 µM
same,GI50,HS 578T breast,2.07 µM
same,TGI,HS 578T breast,4.96 µM
same,GI50,SW-620 colon,0.763 µM
same,TGI,SW-620 colon,2.14 µM
same,GI50,HL-60(TB) leukemia,1.59 µM
same,TGI,HL-60(TB) leukemia,7.08 µM
same,GI50,SF-539 CNS,1.61 µM
same,TGI,SF-539 CNS,2.97 µM
same,GI50,RPMI-8226 leukemia,1.46 µM
same,TGI,RPMI-8226 leukemia,4.7 µM
same,GI50,SF-268 CNS,2.47 µM
same,TGI,SF-268 CNS,7.06 µM
same,GI50,A549 NSCLC,2.91 µM
same,TGI,A549 NSCLC,11 µM
same,GI50,UACC-62 melanoma,1.61 µM
same,TGI,UACC-62 melanoma,3.05 µM
same,GI50,KM12 colon,1.6 µM
same,TGI,KM12 colon,3.27 µM
same,GI50,MALME-3M melanoma,1.57 µM
same,TGI,MALME-3M melanoma,2.96 µM
same,GI50,EKVX NSCLC,1.59 µM
same,TGI,EKVX NSCLC,3 µM
same,GI50,NCI-H460 lung,1.93 µM
same,TGI,NCI-H460 lung,4.59 µM
same,GI50,UACC-257 melanoma,1.6 µM
same,TGI,UACC-257 melanoma,3.07 µM
same,GI50,HCT-15 colon,1.04 µM
same,TGI,HCT-15 colon,2.3 µM
same,GI50,K-562 leukemia,1.23 µM
same,TGI,K-562 leukemia,> 100 µM
same,GI50,HCC-2998 colon,1.65 µM
same,TGI,HCC-2998 colon,3.01 µM
same,GI50,MOLT-4 leukemia,1.83 µM
same,TGI,MOLT-4 leukemia,8.33 µM
same,GI50,SK-OV-3 ovarian,5.49 µM
same,TGI,SK-OV-3 ovarian,18 µM
same,GI50,HCT-116 colon,1.74 µM
same,TGI,HCT-116 colon,3.55 µM
same,GI50,ACHN renal,1.69 µM
same,TGI,ACHN renal,3.06 µM
same,GI50,CCRF-CEM leukemia,1.38 µM
same,TGI,CCRF-CEM leukemia,8.01 µM
same,GI50,M14 melanoma,1.67 µM
same,TGI,M14 melanoma,3.27 µM
same,GI50,MCF7 breast,1.01 µM
same,TGI,MCF7 breast,2.51 µM
same,GI50,SK-MEL-2 melanoma,1.71 µM
same,TGI,SK-MEL-2 melanoma,3.22 µM
same,GI50,T-47D breast,1.33 µM
same,TGI,T-47D breast,3.06 µM
same,GI50,SR leukemia,1.65 µM
same,TGI,SR leukemia,34.4 µM
same,GI50,SN12C renal,1.78 µM
same,TGI,SN12C renal,3.51 µM
same,GI50,IGROV1 ovarian,1.87 µM
same,TGI,IGROV1 ovarian,3.57 µM
same,GI50,SNB-19 CNS,2.74 µM
same,TGI,SNB-19 CNS,8.65 µM
same,GI50,HOP-92 NSCLC,1.5 µM
same,TGI,HOP-92 NSCLC,3.2 µM
same,GI50,NCI-H226 lung,2.29 µM
same,TGI,NCI-H226 lung,6.14 µM
same,GI50,OVCAR-5 ovarian,1.6 µM
same,TGI,OVCAR-5 ovarian,3.02 µM
same,GI50,PC-3 prostate,2.04 µM
same,TGI,PC-3 prostate,4.37 µM
same,GI50,SF-295 CNS,1.88 µM
same,TGI,SF-295 CNS,4.66 µM
same,GI50,TK-10 renal,1.57 µM
same,TGI,TK-10 renal,2.98 µM
same,GI50,UO-31 renal,1.35 µM
same,TGI,UO-31 renal,2.64 µM
same,GI50,OVCAR-3 ovarian,1.22 µM
same,TGI,OVCAR-3 ovarian,2.54 µM
same,GI50,OVCAR-8 ovarian,1.75 µM
same,TGI,OVCAR-8 ovarian,3.68 µM
same,GI50,CAKI-1 renal,1.2 µM
same,TGI,CAKI-1 renal,2.46 µM
same,GI50,U251 CNS,1.56 µM
same,TGI,U251 CNS,3.05 µM
same,GI50,BT-549 breast,1.61 µM
same,TGI,BT-549 breast,3.13 µM
same,GI50,LOX IMVI melanoma,0.879 µM
same,TGI,LOX IMVI melanoma,2.12 µM
same,GI50,DU-145 prostate,1.63 µM
same,TGI,DU-145 prostate,2.99 µM
same,GI50,COLO 205 colon,1.11 µM
same,TGI,COLO 205 colon,2.39 µM
same,GI50,NCI-H522 lung,1.25 µM
same,TGI,NCI-H522 lung,2.65 µM
same,GI50,NCI-H23 lung,1.59 µM
same,TGI,NCI-H23 lung,2.97 µM
same,GI50,HT29 colon,1.89 µM
same,TGI,HT29 colon,3.89 µM
same,GI50,RXF 393 renal,1.32 µM
same,TGI,RXF 393 renal,2.6 µM
same,GI50,SK-MEL-5 melanoma,1.64 µM
same,TGI,SK-MEL-5 melanoma,3.05 µM
same,GI50,MDA-MB-468 breast,0.904 µM
same,TGI,MDA-MB-468 breast,2.28 µM
same,GI50,MDA-MB-435,1.46 µM
same,TGI,MDA-MB-435,2.92 µM
same,GI50,A498 renal,9.47 µM
same,TGI,A498 renal,21.4 µM
same,GI50,786-0 renal,1.57 µM
same,TGI,786-0 renal,3.05 µM
same,GI50,OVCAR-4 ovarian,1.64 µM
same,TGI,OVCAR-4 ovarian,3.01 µM
same,GI50,HOP-62 NSCLC,2.21 µM
same,TGI,HOP-62 NSCLC,5.63 µM
